Experimental data as given in patent US20100105655A1, “NOVEL COMPOUNDS 515” (ASTRAZENECA AB, priority 2008, published 2010).

biological target: T1, IGFR kinase (Homo sapiens, UniProt P08069); assay: Enzyme assay (c), IGFR kinase, Caliper LabChip; assay type: biochemical; conditions: 30 nM IGFR kinase, 6 uM ATP, 3 uM peptide mix; read-out: IGFR IC50
T1 construct: purchased Millipore
T1 sequence (P08069 31-1367): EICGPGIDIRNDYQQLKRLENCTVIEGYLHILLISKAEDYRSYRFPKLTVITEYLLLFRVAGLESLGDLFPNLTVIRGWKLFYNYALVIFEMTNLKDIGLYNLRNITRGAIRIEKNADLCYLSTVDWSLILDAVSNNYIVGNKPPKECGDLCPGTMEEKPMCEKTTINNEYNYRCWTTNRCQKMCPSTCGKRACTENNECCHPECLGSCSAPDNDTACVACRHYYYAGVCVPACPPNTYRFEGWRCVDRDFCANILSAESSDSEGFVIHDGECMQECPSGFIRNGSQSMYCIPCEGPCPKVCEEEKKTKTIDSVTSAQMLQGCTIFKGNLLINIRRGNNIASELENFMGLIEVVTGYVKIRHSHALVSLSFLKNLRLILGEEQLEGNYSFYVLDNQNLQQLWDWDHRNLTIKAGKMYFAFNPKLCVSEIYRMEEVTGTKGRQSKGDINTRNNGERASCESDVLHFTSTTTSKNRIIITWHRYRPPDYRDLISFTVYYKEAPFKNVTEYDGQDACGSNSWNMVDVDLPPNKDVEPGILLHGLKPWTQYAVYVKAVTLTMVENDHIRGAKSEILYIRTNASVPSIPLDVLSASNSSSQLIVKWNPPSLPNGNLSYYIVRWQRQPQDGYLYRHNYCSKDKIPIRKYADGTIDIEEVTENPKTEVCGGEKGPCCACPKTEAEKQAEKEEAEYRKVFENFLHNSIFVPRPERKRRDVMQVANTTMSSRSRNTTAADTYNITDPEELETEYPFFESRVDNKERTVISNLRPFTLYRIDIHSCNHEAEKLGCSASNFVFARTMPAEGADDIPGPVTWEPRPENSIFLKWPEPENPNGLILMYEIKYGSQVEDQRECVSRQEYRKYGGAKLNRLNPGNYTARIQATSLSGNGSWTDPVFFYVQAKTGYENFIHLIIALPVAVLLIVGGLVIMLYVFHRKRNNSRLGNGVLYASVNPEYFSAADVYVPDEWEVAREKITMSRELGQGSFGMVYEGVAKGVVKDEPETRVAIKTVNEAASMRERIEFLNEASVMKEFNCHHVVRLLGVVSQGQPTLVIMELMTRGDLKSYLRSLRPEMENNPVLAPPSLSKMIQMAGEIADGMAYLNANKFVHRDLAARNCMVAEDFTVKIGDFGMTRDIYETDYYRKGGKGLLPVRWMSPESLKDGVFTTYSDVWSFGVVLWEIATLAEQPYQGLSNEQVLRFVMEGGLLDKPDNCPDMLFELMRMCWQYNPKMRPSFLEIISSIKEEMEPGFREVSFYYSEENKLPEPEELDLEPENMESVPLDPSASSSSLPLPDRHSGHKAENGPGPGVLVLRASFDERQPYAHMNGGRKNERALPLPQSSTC

Row | IC50 [µM] | Compound
1 | 0.309 | COc1ccc(N2CCCC2)cc1Nc1ncc(Cl)c(-c2cnc3ccccn23)n1 [Example 3.8, 5-chloro-4-imidazo[1,2-a]pyridin-3-yl-N-(2-methoxy-5-pyrrolidin-1-yl-phenyl)pyrimidin-2-amine]
2 | 0.033 | COc1ccc(N2CCN(C(N)=O)CC2)cc1Nc1ncc(Cl)c(-c2cnc3ccccn23)n1 [Example 55, 4-[3-[(5-chloro-4-imidazo[1,2-a]pyridin-3-yl-pyrimidin-2-yl)amino]-4-methoxy-phenyl]piperazine-1-carboxamide]
3 | 0.01 | COc1cc(N2C[C@@H](C)N(C(C)=O)C[C@@H]2C)ccc1Nc1ncc(Cl)c(-c2cnc3ccccn23)n1 [Example 3.35, 1-[(2R,5S)-4-[4-[(5-chloro-4-imidazo[1,2-a]pyridin-3-yl-pyrimidin-2-yl)amino]-3-methoxy-phenyl]-2,5-dimethyl-piperazin-1-yl]ethanone]
4 | 0.021 | CCc1ccn2c(-c3nc(Nc4ccc(N5CCN(C(C)=O)CC5)cc4OC)ncc3Cl)cnc2c1 [Example 126.8, 1-[4-[4-[[5-chloro-4-(7-ethylimidazo[1,2-a]pyridin-3-yl)pyrimidin-2-yl]amino]-3-methoxyphenyl]piperazin-1-yl]ethanone]
5 | 0.006 | COc1cc(C2CCCN(C(C)=O)C2)ccc1Nc1ncc(Cl)c(-c2cnc3ccccn23)n1 (centres unmarked) [Example 3.29, 1-[3-[4-[(5-chloro-4-imidazo[1,2-a]pyridin-3-yl-pyrimidin-2-yl)amino]-3-methoxy-phenyl]-1-piperidyl]ethanone]
6 | 0.006 | CNC(=O)C1CC(c2ccc(Nc3ncc(Cl)c(-c4cnc5ccccn45)n3)c(OC)c2)CN1 (centres unmarked) [Example 3.27, 4-[4-[(5-chloro-4-imidazo[1,2-a]pyridin-3-yl-pyrimidin-2-yl)amino]-3-methoxy-phenyl]-N-methyl-pyrrolidine-2-carboxamide]
7 | 0.01 | COc1cc(C2CCCCN2C(C)=O)ccc1Nc1ncc(Cl)c(-c2cnc3ccccn23)n1 (centres unmarked) [Example 3.25, 1-[2-[4-[(5-chloro-4-imidazo[1,2-a]pyridin-3-yl-pyrimidin-2-yl)amino]-3-methoxy-phenyl]-1-piperidyl]ethanone]
8 | 0.023 | COc1cc(N2CCN(C(C)(C)CO)CC2)ccc1Nc1ncc(F)c(-c2cnc3ccc(F)cn23)n1 [Example 261, 2-[4-[4-[[5-fluoro-4-(6-fluoroimidazo[1,2-a]pyridin-3-yl)pyrimidin-2-yl]amino]-3-methoxy-phenyl]piperazin-1-yl]-2-methyl-propan-1-ol]
9 | 0.014 | CNCC(=O)N1CCN(c2ccc(Nc3ncc(C)c(-c4cnn5ccccc45)n3)c(OC)c2)CC1 [Example 160, 1-[4-[3-methoxy-4-[(5-methyl-4-pyrazolo[1,5-a]pyridin-3-yl-pyrimidin-2-yl)amino]phenyl]piperazin-1-yl]-2-(methylamino)ethanone]
10 | 0.031 | COc1cc(C(C)C(=O)N2CCOCC2)ccc1Nc1ncc(Cl)c(-c2cnc3ccccn23)n1 (centres unmarked) [Example 3.39, 2-[4-[(5-chloro-4-imidazo[1,2-a]pyridin-3-yl-pyrimidin-2-yl)amino]-3-methoxy-phenyl]-1-morpholino-propan-1-one]
11 | 0.003 | CNCC(=O)N1CCN(c2ccc(Nc3ncc(Cl)c(-c4cnn5ccccc45)n3)c(OC)c2)CC1 [Example 133, 1-[4-[4-[(5-chloro-4-pyrazolo[1,5-a]pyridin-3-yl-pyrimidin-2-yl)amino]-3-methoxy-phenyl]piperazin-1-yl]-2-methylamino-ethanone]
12 | 0.008 | COc1cc(N2CCN(C(=O)[C@@H]3CCC(=O)N3)CC2)ccc1Nc1ncc(Cl)c(-c2cnc3ccccn23)n1 [Example 25.1A, (5S)-5-[4-[4-[(5-chloro-4-imidazo[1,2-a]pyridin-3-yl-pyrimidin-2-yl)amino]-3-methoxy-phenyl]piperazine-1-carbonyl]pyrrolidin-2-one]
13 | 0.003 | COc1cc(N2CCNCC2)ccc1Nc1ncc(Cl)c(-c2cnn3ccccc23)n1 [Example 129, 5-chloro-N-(2-methoxy-4-piperazin-1-yl-phenyl)-4-pyrazolo[1,5-a]pyridin-3-yl-pyrimidin-2-amine]
14 | 0.012 | COc1cc(O[C@H]2CCN(C(=O)C(C)O)C2)ccc1Nc1ncc(Cl)c(-c2cnc3ccccn23)n1 (mixture of isomers) [Example 15, 1-[(3S)-3-[4-[(5-chloro-4-imidazo[1,2-a]pyridin-3-yl-pyrimidin-2-yl)amino]-3-methoxy-phenoxy]pyrrolidin-1-yl]-2-hydroxy-propan-1-one]
15 | 0.033 | COc1cc(C(=O)N2CCNCC2)ccc1Nc1ncc(Cl)c(-c2cnc3ccccn23)n1 [Example 30, [4-[(5-chloro-4-imidazo[1,2-a]pyridin-3-yl-pyrimidin-2-yl)amino]-3-methoxy-phenyl]-piperazin-1-yl-methanone]
16 | 0.132 | COc1cc(CC(=O)O)ccc1Nc1ncc(Cl)c(-c2cnc3ccccn23)n1 [Example 34A, 2-(4-(5-chloro-4-(imidazo[1,2-a]pyridin-3-yl)pyrimidin-2-ylamino)-3-methoxyphenyl)acetic acid]
17 | 0.015 | CCNCC(=O)N1CCN(c2ccc(Nc3ncc(Cl)c(-c4cnc5ccccn45)n3)c(OC)c2)CC1 [Example 24.11, 1-[4-[4-[(5-chloro-4-imidazo[1,2-a]pyridin-3-yl-pyrimidin-2-yl)amino]-3-methoxy-phenyl]piperazin-1-yl]-2-ethylamino-ethanone]
18 | 0.019 | COc1cc(N2CC3CN(C(=O)CN(C)C)CC(C2)O3)ccc1Nc1ncc(Cl)c(-c2cnc3c(F)cccn23)n1 [Example 211, 1-[3-[4-[[5-chloro-4-(8-fluoroimidazo[1,2-a]pyridin-3-yl)pyrimidin-2-yl]amino]-3-methoxy-phenyl]-9-oxa-3,7-diazabicyclo[3.3.1]nonan-7-yl]-2-(dimethylamino)ethanone]
19 | 0.017 | COCCCNCc1ccc(Nc2ncc(Cl)c(-c3cnc4ccccn34)n2)c(OC)c1 [Example 21.9, 5-chloro-4-imidazo[1,2-a]pyridin-3-yl-N-[2-methoxy-4-[(3-methoxypropylamino)methyl]phenyl]pyrimidin-2-amine]
20 | 0.012 | COc1cc(N2CCN(CCO)CC2)ccc1Nc1ncc(C)c(-c2cnc3ccc(F)cn23)n1 [Example 264, 2-[4-[4-[[4-(6-fluoroimidazo[1,2-a]pyridin-3-yl)-5-methyl-pyrimidin-2-yl]amino]-3-methoxy-phenyl]piperazin-1-yl]ethanol]
21 | 0.018 | COc1ccc(OC[C@@H]2CCCN2)cc1Nc1ncc(Cl)c(-c2cnc3ccccn23)n1 [Example 6.3, 5-chloro-4-imidazo[1,2-a]pyridin-3-yl-N-[2-methoxy-5-[[(2S)-pyrrolidin-2-yl]methoxy]phenyl]pyrimidin-2-amine]
22 | 0.019 | COc1cc(N2CC[C@@H](O)C2)ccc1Nc1ncc(Cl)c(-c2cnc3ccccn23)n1 [Example 3.49, (3R)-1-[4-[(5-chloro-4-imidazo[1,2-a]pyridin-3-yl-pyrimidin-2-yl)amino]-3-methoxy-phenyl]pyrrolidin-3-ol]
23 | 0.004 | COc1cc(N2CCN(C(=O)[C@@H](C)N)CC2)ccc1Nc1ncc(Cl)c(-c2cnc3c(F)cc(F)cn23)n1 [Example 253, (2R)-2-amino-1-[4-[4-[[5-chloro-4-(6,8-difluoroimidazo[1,2-a]pyridin-3-yl)pyrimidin-2-yl]amino]-3-methoxy-phenyl]piperazin-1-yl]propan-1-one]
